Test system: HaCaT cells
Assay: Normalized expression of target genes in HaCaT cells stimulated with TNFα and IFNγ in presence/absence of JAK inhibitors (QuantiGene Plex)
Type: cell-based, human
Conditions: for MFI, normalized expression of IYK2: gene IYK2; for MFI, normalized expression of IYK2 / MFI, normalized expression of TNF / MFI, normalized expression of VEGFA: HaCaT, normalized to HPRT1, mean ± standard error; for MFI, normalized expression of TNF: gene TNF; for MFI, normalized expression of VEGFA: gene VEGFA
Protocol: Transformed human keratinocyte (HaCaT) cells were purchased from AddexBio (Catalog #T0020001) and cultured as outlined in Example 5. […] After 48 hours, cell culture media was removed from 24 well plates and replaced with 250 uL of media containing serial diluted drug, then incubated for 15 minutes at 37° C./5% CO2. After drug incubation, 250 uL of combinatory stimulation containing Recombinant Human Interferon gamma (R&D Systems, Catalog #285-IF-100) and Recombinant Human Tumor Necrosis Factor alpha (R&D Systems, Catalog #210-TA-020) was added to plates. The final concentration of Recombinant Human Interferon gamma and Recombinant Human Tumor Necrosis Factor alpha was 25 ng/mL of each cytokine. Cytokine stimulation added to wells containing drug brought the final concentrations for each drug treatment to 25 nM, 50 nM, 100 nM, and 200 nM. Treated plates were mixed by gentle agitation for 30 seconds then incubated for 24 hours at 37° C./5% CO2. At the end of the 24 hour incubation media was immediately removed from each plate.
RNA was isolated from HaCaT cells using the QuantiGene Plex Assay reagents and protocols (Affymetrix, Catalog #QGP-232-M18042302) according to the manufacturer's guidelines. Cells were washed with 1×DPBS then lysed by incubation with provided QuantiGene lysis buffer for 30 minutes at 50-55° C. Cell lysates were incubated for 18-24 hours at 55° C. with capture beads and probe set designed to specifically hybridize to mRNA from targets of interest. Genes included housekeeping genes (e.g., HPRT1 and GAPDH) used for the normalization of the results. After the 18-24 hour incubation signal was amplified utilizing branched DNA methodologies, according to the manufacturer's procedures (Affymetrix, Catalog #QGP-232-M18042302). After hybridization and wash steps assay plate was read on the Luminex 200 and data were expressed as Net Median Fluorescence Intensity. Data was then normalized to the Net Median Fluorescence Intensity of the housekeeping gene HPRT1 (Table 14).

[1] = TNFα+IFNγ 25 ng/mL, Drug Conc 100 nM
[2] = TNFα+IFNγ 25 ng/mL, Drug Conc 200 nM
[3] = TNFα (25 ng/mL) and IFNγ (25 ng/mL), 1st (lowest, likely 25 nM) of 4 drug conc
[4] = TNFα (25 ng/mL) and IFNγ (25 ng/mL), 2nd (likely 50 nM) of 4 drug conc
[5] = TNFα (25 ng/mL) and IFNγ (25 ng/mL), 3rd (likely 100 nM) of 4 drug conc
[6] = TNFα (25 ng/mL) and IFNγ (25 ng/mL), 4th (highest, likely 200 nM) of 4 drug conc
[7] = drug without TNFα/IFNγ stimulation
[8] = no stimulation, Drug Conc 200 nM

`C[C@@H](O)c1nc2cnc3ccsc3c2n1[C@H]1CC[C@H](CC#N)OC1` [Cpd D, ((2R,5S)-5-{2-[(1R)-1-hydroxyethyl]-1H-imidazo[4,5-d]thieno[3,2-b]pyridin-1-yl}tetrahydro-2H-pyran-2-yl)acetonitrile] was tested, and the “STAT3 normalized expression MFI” value [1] was 1549.17 ± 89.41, the “STAT4 normalized expression MFI” value [1] was 5.83 ± 0.34 and the “STAT5A normalized expression MFI” value [1] was 19.54 ± 1.34. For the same compound, the “STAT5B normalized expression MFI” value [1] was 40.91 ± 2.17, the “STAT6 normalized expression MFI” value [1] was 985.1 ± 39.79 and the “AREG normalized expression MFI” value [2] was 713.33 ± 37.27. For the same compound, the “CCL17 normalized expression MFI” value [2] was 2.34 ± 0.4, the “CCL18 normalized expression MFI” value [2] was 1.57 ± 0.3 and the “FLG normalized expression MFI” value [2] was 72.06 ± 11.85. For the same compound, the “IL6 normalized expression MFI” value [2] was 119.49 ± 4.42, the “IL8 normalized expression MFI” value [2] was 367.56 ± 17.81 and the “IL17A normalized expression MFI” value [2] was 0.82 ± 0.13. The “IL22 normalized expression MFI” value [2] was 1.28 ± 0.2, the “IL23A normalized expression MFI” value [2] was 53.83 ± 3.54 and the “IL31 normalized expression MFI” value [2] was 1.51 ± 0.36. For the same compound, the “ILIA normalized expression MFI” value [2] was 1163.14 ± 26.71, the “JAK1 normalized expression MFI” value [2] was 190.53 ± 7.68 and the “JAK2 normalized expression MFI” value [2] was 92.21 ± 2.9. The “JAK3 normalized expression MFI” value [2] was 0.86 ± 0.16, the “LOR normalized expression MFI” value [2] was 17 ± 7.28 and the “S100A7 normalized expression MFI” value [2] was 3.77 ± 0.91. For the same compound, the “S100A12 normalized expression MFI” value [2] was 0.91 ± 0.14, the “SERPINB3 normalized expression MFI” value [2] was 1.69 ± 0.29 and the “SERPINB4 normalized expression MFI” value [2] was 2.33 ± 0.38. For the same compound, the “STAT1 normalized expression MFI” value [2] was 3154.11 ± 139.56, the “STAT3 normalized expression MFI” value [2] was 1570.19 ± 51.51 and the “STAT4 normalized expression MFI” value [2] was 5.42 ± 0.52. For the same compound, the “STAT5A normalized expression MFI” value [2] was 18.33 ± 1.83, the “STAT5B normalized expression MFI” value [2] was 36.62 ± 1.7 and the “STAT6 normalized expression MFI” value [2] was 1013.25 ± 17.15. For the same compound, the “MFI, normalized expression of IYK2” value [3] was 283.93 ± 8.16, the “MFI, normalized expression of IYK2” value [4] was 307.36 ± 14.87 and the “MFI, normalized expression of IYK2” value [5] was 280.63 ± 10.46. For the same compound, the “MFI, normalized expression of IYK2” value [6] was 283.28 ± 10.88, the “MFI, normalized expression of IYK2” value [7] was 217.28 ± 10.09 and the “MFI, normalized expression of TNF” value [3] was 26.07 ± 1.13. For the same compound, the “MFI, normalized expression of TNF” value [4] was 29.31 ± 2.52, the “MFI, normalized expression of TNF” value [5] was 27.59 ± 1.64 and the “MFI, normalized expression of TNF” value [6] was 27.63 ± 2.3. The “MFI, normalized expression of TNF” value [7] was 1.59 ± 0.22, the “MFI, normalized expression of VEGFA” value [3] was 600.98 ± 13.99 and the “MFI, normalized expression of VEGFA” value [4] was 582.24 ± 17.89. The “MFI, normalized expression of VEGFA” value [5] was 572.2 ± 19.67, the “MFI, normalized expression of VEGFA” value [6] was 541.01 ± 9.94 and the “MFI, normalized expression of VEGFA” value [7] was 210.34 ± 9.72. The “AREG normalized expression MFI” value [8] was 251.8 ± 23.68, the “CCL17 normalized expression MFI” value [8] was 0.94 ± 0.14 and the “CCL18 normalized expression MFI” value [8] was 0.95 ± 0.19. The “FLG normalized expression MFI” value [8] was 219.44 ± 34.83, the “IL6 normalized expression MFI” value [8] was 5.15 ± 0.31 and the “IL8 normalized expression MFI” value [8] was 58.9 ± 5.89. The “IL17A normalized expression MFI” value [8] was 0.43 ± 0.08, the “IL22 normalized expression MFI” value [8] was 0.62 ± 0.11 and the “IL23A normalized expression MFI” value [8] was 9.55 ± 1.15. The “IL31 normalized expression MFI” value [8] was 0.91 ± 0.23, the “ILIA normalized expression MFI” value [8] was 84.51 ± 7.04 and the “JAK1 normalized expression MFI” value [8] was 171.53 ± 9.49. For the same compound, the “JAK2 normalized expression MFI” value [8] was 25.25 ± 1.04, the “JAK3 normalized expression MFI” value [8] was 0.53 ± 0.09 and the “LOR normalized expression MFI” value [8] was 12.79 ± 4.84. The “S100A7 normalized expression MFI” value [8] was 3.69 ± 0.84, the “S100A12 normalized expression MFI” value [8] was 0.61 ± 0.11 and the “SERPINB3 normalized expression MFI” value [8] was 1.5 ± 0.27. The “SERPINB4 normalized expression MFI” value [8] was 1.84 ± 0.42, the “STAT1 normalized expression MFI” value [8] was 549.79 ± 12.18 and the “STAT3 normalized expression MFI” value [8] was 750.9 ± 27.68. For the same compound, the “STAT4 normalized expression MFI” value [8] was 3.75 ± 0.33, the “STAT5A normalized expression MFI” value [8] was 1.12 ± 0.19 and the “STAT5B normalized expression MFI” value [8] was 54.64 ± 4.79. The “STAT6 normalized expression MFI” value [8] was 762.04 ± 9.44.

— patent publication US12498382B2, “Biomarkers for vitiligo” (INCYTE CORPORATION, priority 2019, dated 2025)
